Consider 13 compounds from PubChem BioAssay (NCI).

The structures appear in SMILES notation.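 Grown in 96-well plates, cells were treated for 48 hours with each compound at five concentrations. Insufficient inhibition: endpoint recorded as highest concentration tested. At the GI50, growth is halved. Definition used: TGI = concentration required for complete inhibition of growth.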 Where only a bound is given, the exact number is not on record here.

Among the test systems are ACHN renal; NCI-H226 lung; NCI-H23 lung; RXF 393 renal; SK-MEL-5 melanoma; SN12C renal; UACC-62 melanoma; UO-31 renal; HCC-2998 colon; NCI-H522 lung.
Holding throughout (assay): NCI-60 cell line screen, 48 h

As to `N#Cc1ccccc1Sc1ccccc1N`, the TGI with ACHN renal is above 100 µM; with NCI-H226 lung it was 71.6 µM; in the assay on NCI-H23 lung it was above 100 µM; in the assay with RXF 393 renal it was above 100 µM; in the assay on SK-MEL-5 melanoma, 77.3 µM; in the assay with SN12C renal it was above 100 µM. Also, the TGI with UACC-62 melanoma and in the assay on UO-31 renal was above 100 µM each time.
On to `COc1ccc(-c2cnc(-c3ccncc3-c3cccc(OC)c3)o2)cc1`, for which the GI50 is 0.138 µM in the assay on ACHN renal; 0.0799 µM in the assay with HCC-2998 colon; 0.153 µM in the assay with NCI-H226 lung; 0.0383 µM in the assay with NCI-H23 lung; 0.019 µM in the assay on NCI-H522 lung; 0.0379 µM in the assay with SK-MEL-5 melanoma. Moreover, the GI50 with SN12C renal is 0.0798 µM; in the assay on UACC-62 melanoma it was 0.0508 µM; in the assay on UO-31 renal, 0.0896 µM. Besides, the TGI in the assay with ACHN renal was determined as 14.7 µM; with HCC-2998 colon it was 14.3 µM; with NCI-H226 lung it was 15.6 µM; in the assay with NCI-H23 lung, 13 µM; with NCI-H522 lung, 0.0615 µM; in the assay with SK-MEL-5 melanoma, 0.226 µM. The TGI in the assay with SN12C renal was 16 µM; in the assay on UACC-62 melanoma, 15.5 µM; with UO-31 renal, 14.2 µM.
As to `Cc1ccc(S(=O)(=O)Nc2ccccc2C(C)(C)C)cc1`, the TGI was above 100 µM with ACHN renal; above 100 µM in the assay with HCC-2998 colon; 56.3 µM with NCI-H226 lung; 46.3 µM with NCI-H23 lung; 26.8 µM in the assay with RXF 393 renal; 29.8 µM with SK-MEL-5 melanoma. Moreover, the TGI stood at 44.4 µM in the assay with UACC-62 melanoma and 47.3 µM with UO-31 renal.
Take `C=C1C(=O)O[C@@H]2C[C@@]3(C)[C@H](O)CCC(=C)[C@@H]3C[C@H]12`: the TGI was determined as 27.8 µM with ACHN renal; 23.8 µM with HCC-2998 colon; 25.7 µM with NCI-H226 lung; 25.5 µM in the assay on NCI-H23 lung; 17.6 µM in the assay with NCI-H522 lung; 16.8 µM in the assay on SK-MEL-5 melanoma. Besides, the TGI in the assay with SN12C renal is 23.2 µM; in the assay with UACC-62 melanoma, 19 µM; with UO-31 renal, 23.2 µM.
Turning to `O=C1C=CC2(O)OCC3C=C4O[C@@H]5OC6(CCCCC6)O[C@@H]5C4[C@@H]2[C@@H]13` (some centres undefined), the TGI in the assay with ACHN renal is 88.4 µM; with HCC-2998 colon, above 100 µM; with NCI-H226 lung, above 100 µM; with NCI-H23 lung, 67.3 µM; in the assay on NCI-H522 lung it was 27.9 µM; in the assay with SK-MEL-5 melanoma, above 100 µM. For the same compound, the TGI with SN12C renal was above 100 µM; in the assay with UACC-62 melanoma, above 100 µM; in the assay with UO-31 renal, 37.3 µM.
Consider `C#Cc1cccc(NC(=O)/C=C\C(=O)O)c1`, for which the TGI in the assay with ACHN renal, with NCI-H226 lung, in the assay on NCI-H23 lung, with NCI-H522 lung, in the assay on SK-MEL-5 melanoma and in the assay with SN12C renal was above 100 µM throughout. The TGI in the assay with UACC-62 melanoma and in the assay on UO-31 renal was above 100 µM throughout.
Regarding `O=C(Nc1ccccc1C(=O)NC(=O)c1ccccc1NC(=O)c1ccccc1)c1ccccc1`, the TGI turned out to be 36.3 µM in the assay on ACHN renal; 17.1 µM in the assay on NCI-H23 lung; 9.15 µM in the assay on RXF 393 renal; 12.2 µM in the assay with SK-MEL-5 melanoma; 17.2 µM with SN12C renal; 5.54 µM in the assay on UACC-62 melanoma.
Turning to `Nc1nc(-c2ccccc2)c(CC(=O)O)s1`, the TGI in the assay with ACHN renal, with NCI-H226 lung, in the assay with NCI-H522 lung, in the assay on RXF 393 renal, with SK-MEL-5 melanoma and in the assay on SN12C renal was above 100 µM each time. Besides, the TGI with UACC-62 melanoma and in the assay with UO-31 renal was above 100 µM each time.
As to `CCOC(=O)C1=C(C)N(NC(N)=O)C2(N)N(NC(N)=O)C(C)=C(C(=O)OCC)C12C#N` (centres undefined), the TGI with ACHN renal, with HCC-2998 colon, in the assay on NCI-H226 lung, in the assay with NCI-H522 lung, in the assay with SK-MEL-5 melanoma and in the assay with SN12C renal was above 100 µM throughout. Also, the TGI with UACC-62 melanoma and in the assay with UO-31 renal was above 100 µM each time.
`COc1ccc(N(CC(=O)O)N=O)cc1`: the TGI in the assay on ACHN renal, in the assay with NCI-H226 lung, with NCI-H23 lung, in the assay on NCI-H522 lung, in the assay with RXF 393 renal and with SK-MEL-5 melanoma was above 100 µM each time. Further, the TGI in the assay on SN12C renal, in the assay with UACC-62 melanoma and in the assay on UO-31 renal was above 100 µM in each case.
For the compound `[O-][n+]1c2cccc(O)c2[n+]([O-])c2cccc(O)c21`, the TGI in the assay on ACHN renal is 51.8 µM; with NCI-H23 lung it was above 100 µM; with NCI-H522 lung it was above 100 µM; in the assay on RXF 393 renal it was above 100 µM; in the assay with SK-MEL-5 melanoma, above 100 µM; with UO-31 renal, above 100 µM.
For `O=c1c2ccccc2nc(-c2cccc(Cl)c2)n1NC1OC(CO)C(O)C(O)C1O` (centres undefined), the TGI in the assay on ACHN renal, with HCC-2998 colon, in the assay on NCI-H226 lung, with NCI-H23 lung, in the assay on NCI-H522 lung and in the assay on SK-MEL-5 melanoma was above 100 µM throughout. Moreover, the TGI with SN12C renal, in the assay with UACC-62 melanoma and with UO-31 renal was above 100 µM throughout.
`N#CN1CC[C@H](C(=O)Nc2ncc(-c3ccccc3)s2)C1`: the GI50 with ACHN renal was 0.562 µM; in the assay on HCC-2998 colon, 1.09 µM; in the assay on NCI-H226 lung it was 0.693 µM; in the assay on NCI-H23 lung, 0.705 µM; in the assay with NCI-H522 lung it was 0.205 µM; in the assay on SK-MEL-5 melanoma, 0.829 µM. Besides, the GI50 is 0.471 µM in the assay with SN12C renal, 0.371 µM in the assay with UACC-62 melanoma and 0.549 µM in the assay on UO-31 renal. Further, the TGI in the assay with ACHN renal came to 2.49 µM; in the assay on HCC-2998 colon, 2.58 µM; in the assay with NCI-H226 lung it was 4.19 µM; with NCI-H23 lung, 6.46 µM; with NCI-H522 lung, 0.547 µM; in the assay on SK-MEL-5 melanoma, 3.58 µM. Also, the TGI was 7.24 µM in the assay with SN12C renal, 2.18 µM with UACC-62 melanoma and 5.36 µM with UO-31 renal.
